Reference: patent US8916536B2, “Bone-targeting bisphosphonate duplex drugs” (priority 2010, dated 2014)
Counter-ions that a name gives are not always drawn. Blank lines part the entries; values can stand above or below the compound they belong to.

Columns and labels:
[1] = system: 6 different tumor cell lines; details: 6 days of incubation, in average, read-out: concentration for 50% growth inhibition; cited from earlier work
[2] = Hydroxyapatite binding of nucleoside-BPs; format: physicochemical
Procedure: It is known that the BPs moiety of conjugates preserves its high affinity for the bone matrix even when coupled to a bulk residue^17,41 The high affinity to the bone matrix is based on the strong binding properties of BPs to hydroxyapatite^42, 43, 44. For this reasons, we analyzed the adsorption properties of 5-FdU-ale and 5-FdU to hydroxyapatite.
5-FdU (246 mg, 1 mmol) or 5-FdU-ale (475 mg) were dissolved in distilled water (100 ml). The A260-units of the obtained solution and the absorbance ratios of 250/260 and 280/260 were determined using an UV-spectrophotometer. After addition of solid hydroxyapatite as listed in Table 2 the obtained suspension was stirred at room temperature for 24 h. Then, an aliquot (1 ml) of the suspension was filtered through a sterile filter and the A260-units of the filtrate were measured. The amount of drug bound to hydroxyapatite was calculated on the basis of the decreased A260-units of the suspension.
(§1) A solution of 5-FdU-ale (475 mg) in 100 ml H2O was acidified to pH 2 by adding HCl and stirred at 50° C. for 24 h, followed by neutralization with solid sodium carbonate. UV-active degradation products were not detectable at 254 nm by TLC-analysis with CHCl3/MeOH (80:20) using silica gel plates. The hydroxyapatite binding of the pretreated 5-FdU-ale was analyzed as described above.

OVCAR-3 = assay: NCI 60-cell line in vitro screen (SRB), growth percent; format: cell-based; details: OVCAR-3, Ovarian cancers; 10 μM, 48 h incubation; 100% = growth without drug
SNB-75 = assay: as above; format: cell-based; details: SNB-75, CNS cancer; 10 μM, 48 h incubation; 100% = growth without drug
CAKI-1 = assay: as above; format: cell-based; details: CAKI-1, Renal cancers; 10 μM, 48 h incubation; 100% = growth without drug
EKVX = assay: as above; format: cell-based; details: Non-small cell lung cancer, 10 μM, 48 h incubation, 100% = growth without drug
SF-268 = assay: as above; format: cell-based; details: SF-268, CNS cancer; 10 μM, 48 h incubation; 100% = growth without drug
SF-539 = assay: as above; format: cell-based; details: SF-539, CNS cancer; 10 μM, 48 h incubation; 100% = growth without drug
[3] = Stability in acidic conditions (pH 2, 50° C., 24 h; TLC / UV ratio); format: physicochemical
Procedure: as §1
The binding study was also used for an indirect assessment of the stability of the nucleoside-BPs in acidic conditions. Binding was reduced by 13% compared to the untreated compound when a solution of 5-FdU-ale was acidified to pH 2 and kept at 50° C. during 24 h prior to the adsorption to hydroxyapatite. The unchanged A250/260 and 280/260 UV-ratio indicate that no cleavage of 5-FdU-ale into the monomer 5-FdU+ ale occurs during treatment with hydroxyapatite under the used conditions.
Thus, the absence of UV-active compounds allows to conclude that 5-FdU-ale is very stable in acidic conditions.

MDA-MB-435 = assay: NCI 60-cell line in vitro screen (SRB), growth percent; format: cell-based; details: MDA-MB-435, Melanomas; 10 μM, 48 h incubation; 100% = growth without drug
MALME-3M = assay: as above; format: cell-based; details: Melanomas, 10 μM, 48 h incubation, 100% = growth without drug
HOP-62 = assay: as above; format: cell-based; details: HOP-62, Non-small cell lung cancer; 10 μM, 48 h incubation; 100% = growth without drug
60 tumor cell lines = assay: NCI 60-cell line in vitro screen, whole panel; format: cell-based; details: 48/59 cell lines; 10 μM, 48 h incubation
NCI-H322M = assay: NCI 60-cell line in vitro screen (SRB), growth percent; format: cell-based; details: Non-small cell lung cancer, 10 μM, 48 h incubation, 100% = growth without drug
HL-60 (TB) = assay: as above; format: cell-based; details: Leukemia, 10 μM, 48 h incubation, 100% = growth without drug
[4] = hydroxyapatite 7 g, drug in 100 ml water, 24 h room temperature
[5] = hydroxyapatite 5 g, drug in 100 ml water, 24 h room temperature
[6] = hydroxyapatite 7 g, acid pretreatment (pH 2, 50° C., 24 h, then neutralized)

Compound: NCCCC(O)(P(=O)(O)O)P(=O)(O)O [alendronate, (4-Amino-1-hydroxy-1-phosphonobutyl)phosphonate monosodium salt*3H20]
IC50 [1]: 11 to 1860 µM

Compound: O=P(O)(O)C(Cl)(Cl)P(=O)(O)O [Clondronat]
IC50 [1]: 1 to 1410 µM

Bound drug % [2, 4]: 15%
Bound drug mg [2, 4]: 37 mg
Compound: O=c1[nH]c(=O)n([C@H]2C[C@H](O)[C@@H](CO)O2)cc1F [5-FdU, 2′-deoxy-5-fluorouridine, reference compound]

Compound: O=c1nc(NCCCC(O)(P(=O)(O)O)P(=O)(O)O)c(F)cn1C1CC(O)C(CO)O1 (centres unmarked) [6a, N^4-[butyl-(4-hydroxy-4-phosphono)phosphonate]-5-fluoro-2′-deoxycytidine]
Growth [%] (OVCAR-3): 88.34%
Growth [%] (SNB-75): 87.12%
Growth [%] (CAKI-1): 79.14%
Growth [%] (EKVX): 82.45%
Growth [%] (SF-268): 86.64%
Growth [%] (SF-539): 94.79%
cleavage into the monomers 5-FdU + ale ([3]; during treatment with hydroxyapatite, unchanged A250/260 and 280/260 UV-ratio): no cleavage
stability in acidic conditions ([3]; pH 2, 50° C., 24 h, TLC of supernatant, no UV-active compounds): very stable
Growth [%] (MDA-MB-435): 86.95%
Growth [%] (MALME-3M): 89.24%
Growth [%] (HOP-62): 93.16%
growth inhibition in the other cell lines (60 tumor cell lines): did not show any growth inhibition
reduction of binding compared to the untreated compound ([2]; acidified to pH 2, 50° C., 24 h prior to adsorption): 13%
Bound drug % [2, 5]: 41%
Bound drug mg [2, 5]: 195 mg
adsorption to hydroxyapatite relative to 5-FdU ([2]; hydroxyapatite 7 g): approximately sixfold higher
Bound drug % [2, 6]: 74%
Bound drug mg [2, 6]: 352 mg
Bound drug % [2, 4]: 87%
Bound drug mg [2, 4]: 414 mg
Growth [%] (NCI-H322M): 88.84%
Growth [%] (HL-60 (TB)): 61.75%
